Reference: ChEMBL document CHEMBL5247615, “Discovery of 5-(3,4-dihydroxybenzylidene)-1,3-dimethylpyrimidine- 2,4,6(1H,3H,5H)-trione as a novel and effective cardioprotective agent via dual anti-inflammatory and anti-oxidative activities” (Eur J Med Chem, 2022)
Activity calls are given as the source filed them. The rule behind the calls is not given here.

Columns and labels:
H9c2 [1] = test: Cardioprotective activity against hydrogen peroxide induced cell injury in rat H9c2 cells at 40 uM pretreated for 24 hrs followed by treatment with hydrogen peroxide for 2 hrs by MTT assay; format: functional, cell-based; conditions: time 26.0 hrs
H9c2 [2] = test: Cardioprotective activity against hydrogen peroxide induced cell injury in rat H9c2 cells at 5 to 20 uM pretreated with compound for 24 hrs followed by hydrogen peroxide addition for 2 hrs by MTT assay; format: functional, cell-based; conditions: dose 5-20 µM, time 26.0 hrs
H9c2 [3] = test: Cardioprotective activity against hydrogen peroxide induced cell injury in rat H9c2 cells assessed as increase in cell viability at 5 to 20 uM measured after 24 hrs by MTT assay; format: functional, cell-based; conditions: dose 5-20 µM
H9c2 [4] = test: Cardioprotective activity against hydrogen peroxide induced cell injury in rat H9c2 cells assessed as increase in cell viability at 5 uM measured after 24 hrs by MTT assay; format: functional
H9c2 [5] = test: Cytotoxicity against rat H9c2 cells assessed as reduction in cell viability upto 100 uM measured after 24 hrs by MTT assay relative to control; format: toxicity, cell-based; conditions: h9c2, 24 h
H9c2 [6] = test: Cardioprotective activity against hydrogen peroxide induced cell injury in rat H9c2 cells assessed as reduction in loss of cell membrane integrity by measuring LDH level at 5 uM pretreated with compound for 24 hrs followed by treatment with hydrogen peroxide for 2 hrs relative to control; format: functional; design: scale not given: the % may be the effect or the level left
H9c2 [7] = test: Cardioprotective activity against hydrogen peroxide induced cell injury in rat H9c2 cells assessed as reduction in loss of cell membrane integrity by measuring LDH level at 10 uM pretreated with compound for 24 hrs followed by treatment with hydrogen peroxide for 2 hrs relative to control; format: functional; design: scale not given: the % may be the effect or the level left
H9c2 [8] = test: Cardioprotective activity against hydrogen peroxide induced cell injury in rat H9c2 cells assessed as reduction in loss of cell membrane integrity by measuring LDH level at 20 uM pretreated with compound for 24 hrs followed by treatment with hydrogen peroxide for 2 hrs relative to control; format: functional; design: scale not given: the % may be the effect or the level left
H9c2 [9] = test: Cardioprotective activity against hydrogen peroxide induced cell injury in rat H9c2 cells assessed as reversal of abnormal cell morphology pretreated with compound for 24 hrs followed by treatment with hydrogen peroxide for 2 hrs; format: functional, cell-based; conditions: dose 5-20 µM, time 26.0 hrs
H9c2 [10] = test: Inhibition of autophagy in hydrogen peroxide induced rat H9c2 cells assessed as down regulation of […] mRNA level at 5 to 20 uM pretreated with compound for 24 hrs followed by treatment with hydrogen peroxide for 2 hrs; format: functional, cell-based; conditions: dose 5-20 µM, time 26.0 hrs
H9c2 [11] = test: Inhibition of autophagy in hydrogen peroxide induced rat H9c2 cells assessed as down regulation of p62 mRNA level at 5 to 20 uM pretreated with compound for 24 hrs followed by treatment with hydrogen peroxide for 2 hrs; format: functional, cell-based; conditions: dose 5-20 µM, time 26.0 hrs
H9c2 [12] = test: Antiinflammatory activity in hydrogen peroxide induced rat H9c2 cells assessed as reversal of increase in NLRP-3 mRNA expression pretreated with compound for 24 hrs followed by treatment with hydrogen peroxide for 2 hrs; format: functional, cell-based; conditions: dose 5-20 µM, time 26.0 hrs
H9c2 [13] = test: Antiinflammatory activity in hydrogen peroxide induced rat H9c2 cells assessed as reversal of increase in IL-1beta mRNA expression pretreated with compound for 24 hrs followed by treatment with hydrogen peroxide for 2 hrs; format: functional, cell-based; conditions: dose 5-20 µM, time 26.0 hrs
H9c2 [14] = test: Antiinflammatory activity in hydrogen peroxide induced rat H9c2 cells assessed as reversal of increase in IL-18 mRNA expression pretreated with compound for 24 hrs followed by treatment with hydrogen peroxide for 2 hrs; format: functional, cell-based; conditions: dose 5-20 µM, time 26.0 hrs
H9c2 [15] = test: Antioxidant activity in hydrogen peroxide induced rat H9c2 cells assessed as increase in Nrf2 expression pretreated with compound for 24 hrs followed by treatment with hydrogen peroxide for 2 hrs; format: functional, cell-based; conditions: dose 5-20 µM, time 26.0 hrs
H9c2 [16] = test: Antioxidant activity in hydrogen peroxide induced rat H9c2 cells assessed as increase in HO-1 expression pretreated with compound for 24 hrs followed by treatment with hydrogen peroxide for 2 hrs; format: functional, cell-based; conditions: dose 5-20 µM, time 26.0 hrs
H9c2 [17] = test: Antioxidant activity in hydrogen peroxide induced rat H9c2 cells assessed as increase in SOD expression pretreated with compound for 24 hrs followed by treatment with hydrogen peroxide for 2 hrs; format: functional, cell-based; conditions: dose 5-20 µM, time 26.0 hrs
Rattus norvegicus [18] = test: Cardioprotective activity in myocardial ischemia/reperfusion induced Sprague-Dawley rat injury model assessed as decrease in ST-segment elevation at 5 to 20 mg/kg, ip administered once a day for 2 weeks measured by electrocardiogram; format: functional, organism-based; conditions: dose 5-20 mg/kg
Rattus norvegicus [19] = test: Cardioprotective activity in myocardial ischemia/reperfusion induced Sprague-Dawley rat injury model assessed as reduction in cardiac infarct size at 10 mg/kg, ip administered once a day for 2 weeks measured by Evans blue staining analysis (reference value: 46.8%); format: functional, Heart; design: scale not given: the % may be the effect or the level left
Rattus norvegicus [20] = test: Cardioprotective activity in myocardial ischemia/reperfusion induced Sprague-Dawley rat injury model assessed as reduction in heart cardiac infarct size at 20 mg/kg, ip administered once a day for 2 weeks measured by Evans blue staining analysis (reference value: 46.8%); format: functional; design: scale not given: the % may be the effect or the level left
Rattus norvegicus [21] = test: Cardioprotective activity in myocardial ischemia/reperfusion induced ip dosed Sprague-Dawley rat injury model assessed as increase in heart AST level administered once a day for 2 weeks; format: functional, organism-based; conditions: dose 5-20 mg/kg
Rattus norvegicus [22] = test: Cardioprotective activity in myocardial ischemia/reperfusion induced ip dosed Sprague-Dawley rat injury model assessed as increase in heart LDH level administered once a day for 2 weeks; format: functional, organism-based; conditions: dose 5-20 mg/kg
Rattus norvegicus [23] = test: Antiinflammatory activity in myocardial ischemia/reperfusion induced ip dosed Sprague-Dawley rat injury model assessed as decrease in NLRP3 protein expression in heart administered once a day for 2 weeks by Western blotting analysis; format: functional, organism-based; conditions: dose 5-20 mg/kg
Rattus norvegicus [24] = test: Antiinflammatory activity in myocardial ischemia/reperfusion induced ip dosed Sprague-Dawley rat injury model assessed as decrease in IL-1beta protein expression in heart administered once a day for 2 weeks by Western blotting analysis; format: functional, organism-based; conditions: dose 5-20 mg/kg
Rattus norvegicus [25] = test: Antiinflammatory activity in myocardial ischemia/reperfusion induced ip dosed Sprague-Dawley rat injury model assessed as decrease in MDA level administered once a day for 2 weeks by Western blotting analysis; format: functional, organism-based; conditions: dose 5-20 mg/kg
Rattus norvegicus [26] = test: Antiinflammatory activity in myocardial ischemia/reperfusion induced ip dosed Sprague-Dawley rat injury model assessed as increase in CAT activity administered once a day for 2 weeks by Western blotting analysis; format: functional, organism-based; conditions: dose 5-20 mg/kg
Rattus norvegicus [27] = test: Antioxidant activity in myocardial ischemia/reperfusion induced Sprague-Dawley rat injury model assessed as […] Nrf2 expression administered at 10 mg/kg, ip once a day for 2 weeks by Western blotting analysis; format: functional, organism-based
Rattus norvegicus [28] = test: Antiinflammatory activity in myocardial ischemia/reperfusion induced Sprague-Dawley rat injury model assessed as decrease in IL-1beta protein expression in heart at 10 mg/kg, ip administered once a day for 2 weeks by Western blotting analysis; format: functional, organism-based

O=c1cc(-c2ccc(O)c(O)c2)oc2cc(O)cc(O)c12
Activity (H9c2 [1]): Active

COCCc1ccc(OCC(O)CNC(C)C)cc1 (stereo not drawn)
Activity (H9c2 [1]): Active

Cc1ccc(O)c(C=C2C(=O)N(C)C(=O)N(C)C2=O)c1
Activity (H9c2 [2]): Active

CN1C(=O)C(=Cc2ccccc2O)C(=O)N(C)C1=O
Activity (H9c2 [3]): Active | Activity (H9c2 [4]): 40.3%

CN1C(=O)C(=Cc2ccc(O)c(O)c2)C(=O)N(C)C1=O
Activity (H9c2 [2]): Active | Activity (H9c2 [3]): Active | Activity (H9c2 [4]): 77.5% | Activity (H9c2 [5]): Non-Toxic | Activity (H9c2 [6]): 15.3% | Activity (H9c2 [7]): 35.6% | Activity (H9c2 [8]): 60.7% | Activity (H9c2 [9]): Dose-Dependent Effect | inhibition (H9c2 [10]): Active | inhibition (H9c2 [11]): Active | Activity (H9c2 [12]): Dose-Dependent Effect | Activity (H9c2 [13]): Dose-Dependent Effect | Activity (H9c2 [14]): Dose-Dependent Effect | Activity (H9c2 [15]): Dose-Dependent Effect | Activity (H9c2 [16]): Dose-Dependent Effect | Activity (H9c2 [17]): Dose-Dependent Effect | Activity (Rattus norvegicus [18]): Active | Activity (Rattus norvegicus [19]): 32.3% | Activity (Rattus norvegicus [20]): 22.3% | Activity (Rattus norvegicus [21]): Dose-Dependent Effect | Activity (Rattus norvegicus [22]): Dose-Dependent Effect | Activity (Rattus norvegicus [23]): Active | Activity (Rattus norvegicus [24]): Active | Activity (Rattus norvegicus [25]): Active | Activity (Rattus norvegicus [26]): Active | Activity (Rattus norvegicus [27]): inactive | Activity (Rattus norvegicus [28]): Active

CN1C(=O)C(=Cc2cccc(O)c2O)C(=O)N(C)C1=O
Activity (H9c2 [2]): Active
